The values that follow come from patent US20260000676A1, “CHROMAN DERIVATIVES AS ESTROGEN RECEPTOR DEGRADERS” (THE REGENTS OF THE UNIVERSITY OF MICHIGAN, priority 2022, published 2026).

Where a name gives a salt, the structure may show the parent alone.

Assay [1] has as its target T1, ER (Homo sapiens (Human), UniProt P03372). Nature of the assay: In-cell western (ICW) ER degradation assay in T47D cells. Format: cell-based. The settings on record: 16 hrs; for DC50: ER degradation; for Dmax / T47D Dmax %: maximal ER degradation.
For assay [2], the target named is T1, ER. Nature of the assay: In-cell western (ICW) ER degradation assay in MCF-7 cells. The conditions noted are these: MCF7, 16 hrs; for DC50: ER degradation; for Dmax: MCF7, maximal ER degradation; for MCF7 Dmax %: maximal ER degradation. Format: cell-based.
Another assay has as its target CRBN/DDB1 (Homo sapiens (Human), UniProt Q96SW2). Nature of the assay: HTRF binding assay to CRBN/DDB1. The settings on record: read-out: CRBN HTRF IC50. The procedure: The binding potency was determined using HTRF assay technology (Perkin Elmer). Compounds were serially diluted in DMSO and 0.2 μL volume was transferred to white 384-well plate.
For orientation: In TR-FRET formats the signal depends on donor and acceptor labels being close together.

T1 sequence (P03372 whole entry): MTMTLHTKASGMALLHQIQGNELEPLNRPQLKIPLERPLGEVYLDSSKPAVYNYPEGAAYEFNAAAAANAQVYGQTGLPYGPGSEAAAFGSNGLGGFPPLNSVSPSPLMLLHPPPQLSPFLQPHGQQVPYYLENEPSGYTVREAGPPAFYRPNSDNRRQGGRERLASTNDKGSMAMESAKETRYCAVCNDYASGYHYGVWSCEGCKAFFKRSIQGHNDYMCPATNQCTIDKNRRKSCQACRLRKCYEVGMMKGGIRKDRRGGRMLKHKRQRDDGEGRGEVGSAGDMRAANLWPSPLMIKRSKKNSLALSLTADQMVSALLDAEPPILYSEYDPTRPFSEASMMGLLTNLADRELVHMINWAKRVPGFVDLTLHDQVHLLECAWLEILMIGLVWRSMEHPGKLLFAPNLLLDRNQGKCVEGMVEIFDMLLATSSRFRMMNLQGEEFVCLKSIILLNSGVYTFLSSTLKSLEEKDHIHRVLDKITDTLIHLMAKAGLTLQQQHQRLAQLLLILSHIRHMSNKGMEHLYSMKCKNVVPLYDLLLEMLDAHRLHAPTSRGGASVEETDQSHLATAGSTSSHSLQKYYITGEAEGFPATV
CRBN/DDB1, sequence (Q96SW2 whole entry): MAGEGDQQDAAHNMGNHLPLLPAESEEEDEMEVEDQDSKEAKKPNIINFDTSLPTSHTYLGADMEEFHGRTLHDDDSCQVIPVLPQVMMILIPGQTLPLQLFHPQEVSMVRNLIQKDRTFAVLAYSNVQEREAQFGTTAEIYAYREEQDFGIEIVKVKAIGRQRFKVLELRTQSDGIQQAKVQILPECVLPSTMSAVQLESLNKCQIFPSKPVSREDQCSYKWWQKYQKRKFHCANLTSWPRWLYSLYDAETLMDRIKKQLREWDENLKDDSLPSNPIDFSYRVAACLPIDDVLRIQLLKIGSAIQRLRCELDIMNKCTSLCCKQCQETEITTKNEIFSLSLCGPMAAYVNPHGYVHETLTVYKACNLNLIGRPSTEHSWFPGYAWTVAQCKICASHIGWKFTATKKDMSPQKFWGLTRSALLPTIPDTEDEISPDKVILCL
CRBN/DDB1, sequence (Q16531 whole entry partner): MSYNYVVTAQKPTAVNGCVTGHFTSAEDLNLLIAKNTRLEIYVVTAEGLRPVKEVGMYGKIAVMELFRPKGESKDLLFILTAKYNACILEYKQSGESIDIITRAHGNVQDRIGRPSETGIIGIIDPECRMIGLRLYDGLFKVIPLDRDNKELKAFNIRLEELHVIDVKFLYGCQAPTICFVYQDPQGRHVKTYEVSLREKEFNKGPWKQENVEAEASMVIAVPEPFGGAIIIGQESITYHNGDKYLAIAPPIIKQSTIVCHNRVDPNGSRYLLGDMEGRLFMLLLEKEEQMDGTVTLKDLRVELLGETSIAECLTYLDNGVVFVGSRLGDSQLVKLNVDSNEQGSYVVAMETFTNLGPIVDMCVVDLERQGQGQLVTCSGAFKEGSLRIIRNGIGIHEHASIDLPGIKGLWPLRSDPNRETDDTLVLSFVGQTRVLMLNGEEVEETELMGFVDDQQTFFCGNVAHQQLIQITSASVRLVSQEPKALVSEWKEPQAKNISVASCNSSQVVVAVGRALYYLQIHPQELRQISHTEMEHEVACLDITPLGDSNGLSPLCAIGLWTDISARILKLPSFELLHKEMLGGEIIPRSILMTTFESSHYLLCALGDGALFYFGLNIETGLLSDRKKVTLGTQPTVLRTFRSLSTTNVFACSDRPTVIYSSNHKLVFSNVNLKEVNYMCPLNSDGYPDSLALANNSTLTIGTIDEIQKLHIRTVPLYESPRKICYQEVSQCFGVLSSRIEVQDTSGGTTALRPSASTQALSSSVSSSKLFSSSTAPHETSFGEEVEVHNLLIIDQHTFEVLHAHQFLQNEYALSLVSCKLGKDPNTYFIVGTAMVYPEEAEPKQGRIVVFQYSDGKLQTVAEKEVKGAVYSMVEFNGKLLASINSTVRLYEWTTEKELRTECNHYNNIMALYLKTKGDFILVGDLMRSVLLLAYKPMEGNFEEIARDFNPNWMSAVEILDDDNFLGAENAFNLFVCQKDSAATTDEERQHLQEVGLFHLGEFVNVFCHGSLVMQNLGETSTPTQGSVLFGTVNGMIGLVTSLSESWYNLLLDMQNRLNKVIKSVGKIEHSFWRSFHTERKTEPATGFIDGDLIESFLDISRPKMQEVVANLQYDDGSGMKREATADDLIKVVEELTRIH

Take `O=C1CCC(Nc2ccc(C3CCN(CC4CC5(CCN(c6ccc([C@@H]7c8ccc(O)cc8OC[C@@H]7c7ccccc7)cc6)CC5)C4)CC3)c(F)c2)C(=O)N1` (single isomer, unassigned) [Compound A75]: on ER [1], the half-maximal degradation concentration (DC50) (as a rule, the concentration giving 50% degradation) was 1 to 10 nM and the Dmax (commonly the largest share of the target that was removed) is 50 to 75%. On ER [2], the DC50 is less than 1 nM and the Dmax lay in the range of 25 to 50%. On CRBN/DDB1, the 50% inhibitory concentration (IC50) – broadly, the concentration that inhibits the measured activity by half – lay in the range of 50 to 500 nM.

For the compound `Cn1c(=O)n(C2CCC(=O)NC2=O)c2ccc(C3CCN(CC4CC5(CCN(c6ccc([C@@H]7c8ccc(O)cc8OC[C@@H]7c7ccccc7)cc6)CC5)C4)CC3)cc21` (single isomer, unassigned) [Compound A73], the half-maximal degradation concentration (DC50) on ER [1] and at ER [2] was less than 1 nM each time. The Dmax at ER [1] and on ER [2] was 50 to 75% each time. The 50% inhibitory concentration (IC50) on CRBN/DDB1 is less than 50 nM.

Take `O=C1CC[C@@H](N2Cc3cc4c(cc3C2=O)OC[C@@H]2CN(C[C@H]3COC5(CCN(c6ccc([C@H]7c8ccc(O)cc8OC[C@H]7c7ccccc7)cc6)CC5)C3)CCN42)C(=O)N1` [Compound A152, (R)-3-((S)-3-(((S)-8-(4-((3R,4S)-7-hydroxy-3-phenylchroman-4-yl)phenyl)-1-oxa-8-azaspiro[4.5]decan-3-yl)methyl)-8-oxo-1,2,3,4,4a,5,8,10-octahydro-9H-pyrazino[1′,2′:4,5][1,4]oxazino[2,3-f]isoindol-9-yl)piperidine-2,6-dione]: at ER [1], the DC50 fell in the range of 1 to 10 nM; the “T47D Dmax %” value was “B (“B”: >50% and <75%)”. Also, at ER [2], the 50% degradation concentration (DC50) is 10 to 100 nM; the “MCF7 Dmax %” value was “B (“B”: >50% and <75%)”. Further, at CRBN/DDB1, the concentration for half-maximal inhibition (IC50) lay in the range of 50 to 500 nM.

On to `O=C1CC[C@@H](Nc2ccc(C3CCN(CC4CCC5(CC4)CN(c4ccc([C@@H]6c7ccc(O)cc7OC[C@@H]6c6ccccc6)cc4)C5)CC3)cc2)C(=O)N1` (single isomer, unassigned) [Compound A141], for which, at ER [1], the 50% degradation concentration (DC50) lay within 1 to 10 nM and the maximal degradation (Dmax) fell in the range of 50 to 75%. At ER [2], this compound had a 50% degradation concentration (DC50) of 1 to 10 nM and a Dmax of 50 to 75%. Moreover, the half-maximal inhibitory concentration (IC50) at CRBN/DDB1 was in the range of 50 to 500 nM.

On to `O=C1CC[C@@H](NC(=O)c2ccc(N3CCC(CN4CC5(CCN(c6ccc([C@H]7c8ccc(O)cc8OC[C@H]7c7ccccc7)cc6)CC5)C4)CC3)cn2)C(=O)N1` (single isomer, unassigned) [Compound A111], for which, at ER [1], the DC50 was less than 1 nM and the greatest degradation seen (Dmax) lay within 50 to 75%. For the same compound, at ER [2], the DC50 was less than 1 nM and the greatest degradation seen (Dmax) is 50 to 75%. Also, on CRBN/DDB1, the IC50 lay within 500 to 5000 nM.

At ER [1], `O=C1CCC(NC(=O)c2ccc(N3CCN(CC4CC5(CCN(c6ccc([C@@H]7c8ccc(O)cc8OC[C@@H]7c7ccccc7)cc6)CC5)C4)CC3)cn2)C(=O)N1` (stereo partly drawn) [Compound A85, N-(2,6-dioxopiperidin-3-yl)-5-(4-((7-(4-((3S,4R)-7-hydroxy-3-phenylchroman-4-yl)phenyl)-7-azaspiro[3.5]nonan-2-yl)methyl)piperazin-1-yl)picolinamide] registered a DC50 of 1 to 10 nM and a Dmax of 50 to 75%. For the same compound, on ER [2], the 50% degradation concentration (DC50) was less than 1 nM and the Dmax lay in the range of 50 to 75%. The IC50 on CRBN/DDB1 was more than 5000 nM.

Regarding `O=C1CC[C@@H](N2Cc3c(ccc4c3OC[C@@H]3CN(CC5COC6(CCN(c7ccc([C@@H]8c9ccc(O)cc9OC[C@@H]8c8ccccc8)cc7F)CC6)C5)CCN43)C2=O)C(=O)N1` (single isomer, unassigned) [Compound A158], the 50% degradation concentration (DC50) at ER [1] and at ER [2] was less than 1 nM each time. Moreover, at CRBN/DDB1, the IC50 is less than 50 nM.

On ER [1], `COc1cc(N2CCC(CN3CCN4c5ccc6c(c5OC[C@H]4C3)CN(C3CCC(=O)NC3=O)C6=O)CC2)c(F)cc1[C@H]1c2ccc(O)cc2OC[C@H]1c1ccccc1` (stereo partly drawn) [Compound A105, (R)-3-((S)-7-((1-(2-fluoro-4-((3R,4R)-7-hydroxy-3-phenylchroman-4-yl)-5-methoxyphenyl)piperidin-4-yl)methyl)-1-oxo-1,3,5,5a,6,7,8,9-octahydro-2H-pyrazino[1′,2′:4,5][1,4]oxazino[2,3-e]isoindol-2-yl)piperidine-2,7-dione] returned a 50% degradation concentration (DC50) of 1 to 10 nM and a maximal degradation (Dmax) of 25 to 50%. On ER [2], this compound gave a DC50 of 10 to 100 nM and a Dmax of 25 to 50%. Also, on CRBN/DDB1, the concentration for half-maximal inhibition (IC50) is less than 50 nM.

On ER [1], `O=C1CC[C@@H](N2Cc3cc4c(cc3C2=O)OC[C@@H]2CN(C[C@@H]3COC5(CCN(c6ccc([C@H]7c8ccc(O)cc8OC[C@H]7c7ccccc7)cc6)CC5)C3)CCN42)C(=O)N1` [Compound A151, (R)-3-((S)-3-(((R)-8-(4-((3R,4S)-7-hydroxy-3-phenylchroman-4-yl)phenyl)-1-oxa-8-azaspiro[4.5]decan-3-yl)methyl)-8-oxo-1,2,3,4,4a,5,8,10-octahydro-9H-pyrazino[1′,2′:4,5][1,4]oxazino[2,3-f]isoindol-9-yl)piperidine-2,6-dione] had a DC50 of less than 1 nM and a Dmax of 50 to 75%. On ER [2], this compound registered a DC50 of less than 1 nM and a maximal degradation (Dmax) of 50 to 75%. The IC50 at CRBN/DDB1 is 50 to 500 nM.

As for `O=C1CCC(NC(=O)c2ccc3c(n2)OC[C@H]2CN(CC4CCN(c5ccc([C@@H]6c7ccc(O)cc7OC[C@@H]6c6ccccc6)cc5F)CC4)CCN32)C(=O)N1` (single isomer, unassigned) [Compound A104], on ER [1], the 50% degradation concentration (DC50) was in the range of 1 to 10 nM and the greatest degradation seen (Dmax) was not below 75%. On ER [2], this compound showed a 50% degradation concentration (DC50) of 1 to 10 nM and a Dmax not below 75%. Moreover, the concentration for half-maximal inhibition (IC50) at CRBN/DDB1 is 500 to 5000 nM.

On to `O=C1CC[C@@H](N2Cc3c(ccc4c3OC[C@@H]3CN(C[C@H]5COC6(CCN(c7ccc([C@H]8c9ccc(O)cc9OC[C@H]8c8ccccc8)cc7)CC6)C5)CCN43)C2=O)C(=O)N1` [Compound A133, (R)-3-((S)-7-(((S)-8-(4-((3R,4S)-7-hydroxy-3-phenylchroman-4-yl)phenyl)-1-oxa-8-azaspiro[4.5]decan-3-yl)methyl)-1-oxo-1,3,5,5a,6,7,8,9-octahydro-2H-pyrazino[1′,2′:4,5][1,4]oxazino[2,3-e]isoindol-2-yl)piperidine-2,6-dione], for which the values for the half-maximal degradation concentration (DC50) on ER [1] and on ER [2] were less than 1 nM and 1 to 10 nM, respectively. For the same compound, the greatest degradation seen (Dmax) at ER [1] and on ER [2] was 25 to 50% in each case. At CRBN/DDB1, the concentration for half-maximal inhibition (IC50) is less than 50 nM.

On ER [1], `O=C1CCC(NC(=O)c2ccc3c(n2)OC[C@H]2CN(CC4CCN(c5ccc([C@H]6c7ccc(O)cc7OC[C@H]6c6ccccc6)cc5F)CC4)CCN32)C(=O)N1` (stereo partly drawn) [Compound A103, (4aR)-N-(2,6-dioxopiperidin-3-yl)-3-((1-(2-fluoro-4-((3R,4S)-7-hydroxy-3-phenylchroman-4-yl)phenyl)piperidin-4-yl)methyl)-1,2,3,4,4a,5-hexahydropyrazino[1,2-d]pyrido[2,3-b][1,4]oxazine-8-carboxamide] returned a DC50 of 1 to 10 nM and a maximal degradation (Dmax) of 50 to 75%. At ER [2], the half-maximal degradation concentration (DC50) lay in the range of 1 to 10 nM and the greatest degradation seen (Dmax) lay in the range of 50 to 75%. Also, at CRBN/DDB1, the IC50 lay in the range of 500 to 5000 nM.

On to `O=C1CCC(NC(=O)c2ccc(N3CCN(CC4CCN(c5ccc([C@@H]6c7ccc(O)cc7OC[C@@H]6c6ccccc6)cc5)CC4)CC3)cn2)C(=O)N1` (single isomer, unassigned) [Compound A88], for which the DC50 on ER [1] and on ER [2] was 1 to 10 nM each time. In addition, the maximal degradation (Dmax) on ER [1] and at ER [2] was 50 to 75% in each case. The IC50 on CRBN/DDB1 was more than 5000 nM.

As to `COc1cc(N2CCC(CN3CCN(c4ccc(C(=O)NC5CCC(=O)NC5=O)nc4)CC3)CC2)c(F)cc1[C@H]1c2ccc(O)cc2OC[C@H]1c1ccccc1` (stereo partly drawn) [Compound A109, N-(2,6-dioxopiperidin-3-yl)-5-(4-((1-(2-fluoro-4-((3R,4R)-7-hydroxy-3-phenylchroman-4-yl)-5-methoxyphenyl)piperidin-4-yl)methyl)piperazin-1-yl)picolinamide], on ER [1], the DC50 lay in the range of 1 to 10 nM and the “T47D Dmax %” value was “C (“C”: 25%-50%)”. For the same compound, at ER [2], the half-maximal degradation concentration (DC50) lay within 10 to 100 nM and the “MCF7 Dmax %” value is listed as “C (“C”: 25%-50%)”. Besides, at CRBN/DDB1, the IC50 is more than 5000 nM.

At ER [1], `COc1cc(N2CCC3(CC2)CC(CN2CCN4c5ccc6c(c5OC[C@@H]4C2)CN([C@@H]2CCC(=O)NC2=O)C6=O)C3)c(F)cc1[C@H]1c2ccc(O)cc2OC[C@H]1c1ccccc1` [Compound A126, (R)-3-((S)-7-((7-(2-fluoro-4-((3R,4R)-7-hydroxy-3-phenylchroman-4-yl)-5-methoxyphenyl)-7-azaspiro[3.5]nonan-2-yl)methyl)-1-oxo-1,3,5,5a,6,7,8,9-octahydro-2H-pyrazino[1′,2′:4,5][1,4]oxazino[2,3-e]isoindol-2-yl)piperidine-2,6-dione] displayed a 50% degradation concentration (DC50) of less than 1 nM and a maximal degradation (Dmax) of 50 to 75%. Moreover, at ER [2], the half-maximal degradation concentration (DC50) was in the range of 1 to 10 nM and the Dmax lay in the range of 25 to 50%. On CRBN/DDB1, the IC50 was less than 50 nM.

Consider `O=C1CCC(Nc2ccc3c(c2)OC[C@H]2CN(CC4CCN(c5ccc([C@@H]6c7ccc(O)cc7OC[C@@H]6c6ccccc6)cc5)CC4)CCN32)C(=O)N1` (single isomer, unassigned) [Compound A91, hydrochloride], for which the DC50 at ER [1] and on ER [2] was 1 to 10 nM each time. Also, the half-maximal inhibitory concentration (IC50) on CRBN/DDB1 is more than 5000 nM.

For `COc1cc(C(=O)N[C@@H]2CCC(=O)NC2=O)ncc1N1CCN(CC2CCC3(CC2)CN(c2ccc([C@H]4c5ccc(O)cc5OC[C@H]4c4ccccc4)cc2)C3)CC1` (single isomer, unassigned) [Compound A144], the DC50 is more than 100 nM on ER [1] and 10 to 100 nM on ER [2]. Moreover, the Dmax is less than 25% at ER [1] and 25 to 50% at ER [2]. Besides, the IC50 on CRBN/DDB1 lay within 500 to 5000 nM.

At ER [1], `O=C1CCC(N2C(=O)c3cc4c(cc3C2=O)CN(C(=O)C2CCN(C3CCN(c5ccc([C@@H]6c7ccc(O)cc7OC[C@@H]6c6ccccc6)cc5)CC3)CC2)C4)C(=O)N1` (single isomer, unassigned) [Compound A79] registered a DC50 of less than 1 nM and a Dmax not below 75%. Moreover, on ER [2], the 50% degradation concentration (DC50) was less than 1 nM and the maximal degradation (Dmax) is not below 75%. Also, on CRBN/DDB1, the IC50 was 500 to 5000 nM.
